In patent US20020001582A1, “Methods and compositions for inhibiting microbial growth” (priority 1999, published 2002):

Experiments:
M. nivale = assay: Suppression of fungal disease on young bentgrass, greenhouse trial; assay type: in vivo, M. nivale on creeping bentgrass (Agrotis spp.) cv. Penncross; settings: 5,000 and 10,000 ppm
Protocol: Creeping bentgrass (Agrotis spp.) cv. Penncross was used as the host in the greenhouse trials. This species is widely used in golf greens and is easily managed under greenhouse conditions. Bentgrass was seeded in 6 cm diameter and 5 cm height pots (made from PVC pipes) containing steam sterilized river washed sand. A seeding rate of 0.1 g/pot was used to ensure rapid establishment of a uniform, dense stand. Throughout the experiment, the grass was regularly watered, fertilized and maintained at a cutting height approximately 2.0 cm above the soil surface.
Virulent isolates of test fungi were grown on a rye grain medium for approximately one week. This medium consisted of 50 g of rye grain, 1 g of CaCO3, and 75 ml of water. It was prepared in a 250 ml Erlenmeyer flask and autoclaved for 30 minutes. Three to five plugs of the actively growing mycelia from week old cultures on potato dextrose agar were transferred into flasks, and incubated in the dark at room temperature.
Pots of eight-week-old bentgrass were inoculated with the test fungi by placing 2-3 kernels of infected rye in the center of the grass area, just above the soil surface. After inoculation, pots were placed in humidity chambers on a greenhouse bench. Temperature during incubation was maintained at 27-30° C. for disease development and the growth of the test fungi. […]

Sclerotinia homoeocarpa [1] = assay: Protective treatment of mature bentgrass (lysozyme 24 hours before inoculation); assay type: in vivo
Protocol: (§1) One year old bentgrass (Agrotis spp.) cv Pennlink was used as the host in this trial. It was grown in an open field at Select Sand Farm in Fort Langley, B.C. Round pieces of turfgrass, 6 cm diameter, were cut out and placed on 5 cm high pots (made from PVC pipes) containing steam sterilized river washed sand. The potted grass was regularly watered, fertilized and maintained at a cutting height of approximately 2.0 cm above the soil surface.
(§2) The efficacy of egg white lysozyme was tested on Sclerotinia homoeocarpa. Virulent isolates of the test fungi were grown on a rye grain medium for approximately one week. This medium consisted of 50 g of rye grain, 1 g of CaCO3, and 75 ml of water. The medium was prepared in a 250 ml Erlenmeyer flask and autoclaved for 30 minutes. Three to five plugs of the actively growing mycelia from one-week-old culture on potato dextrose agar were transferred into flasks, and incubated in the dark at room temperature.
Lysozyme was applied with a hand held spray bottle. Treated and untreated bentgrass was then inoculated with the test fungi by placing 3 infected rye kernels in the center of the pot, just above the soil surface. After inoculation, the pots were placed in humidity chambers on a greenhouse bench. […]
(§3) Pots were removed from the humidity chamber and evaluated individually for disease severity. […]

Sclerotinia homoeocarpa [2] = assay: Suppressive treatment of mature bentgrass (lysozyme 24 and 48 hours after inoculation); assay type: in vivo; settings: day 7, 14 or 21, except 5,000 ppm on day 21
Protocol: as §1, §2
In a second test three weeks after it was potted, the bentgrass was first inoculated with the test fungi by placing 3 infected rye kernels in the center of the pot, just above the soil surface. After inoculation, the pots were placed in humidity chambers on a greenhouse bench. Temperature during incubation was maintained at 27-30° C. for disease development. […]
as §3

[3] = system: IM080 Botrytis (pepper, BCMAF F24); assay: Inhibition of Botrytis by lysozyme in PD broth, % plate coverage; assay type: cell-based; settings: for average fungal growth (% plate coverage): day 14
Protocol: (§4) Botrytis was grown in petri dishes on PD agar. Potato dextrose broth was prepared, poured into glass dilution bottles (100 ml each), autoclaved and allowed to cool. […] A fungal square (plug) of each culture was cut and placed in/near the center of each plate. Fungal growth was quantified by measuring the diameter of growth of each fungus while it was growing on the liquid media in each petri dish using a ruler. Each treatment was done in triplicate. The experiment was repeated three times (three batches). The observation period for each batch was 2 weeks.
(§5) The fungal growth was expressed in % coverage of the petri dishes by the fungal patches. The calculation is presented in the following equation:
(§6) Fungal growth (%)=(area of fungal patch/total plate area )×100
(§7) The average plate coverage for each treatment was plotted against the time after inoculation (FIGS. 14-19). Statistical analysis was carried out using SigmaStat (Version 2.0, SPSS Science, 1997).

[4] = system: IM082 Botrytis (blueberry, BCMAF F25); assay: as above; assay type: cell-based; settings: for coverage of the petri dishes: day 14
Protocol: as §4, §5, §6, §7

[5] = system: IM111 Botrytis (blueberry, BCMAF F27); assay: as above; assay type: cell-based; settings: for fungal growth (% plate coverage): day 14
Protocol: as §4, §5, §6, §7

[6] = system: IM112 Botrytis cinerea(Pers.); assay: as above; assay type: cell-based
Protocol: as §4, §5, §6, §7

[7] = system: IM113 Botrytis cinerea(Pers.); assay: as above; assay type: cell-based; settings: for fungal growth (% plate coverage): day 14
Protocol: as §4, §5, §6, §7

IM188 Botrytis cinerea = assay: as above; assay type: cell-based; settings: for fungal growth (% plate coverage): day 14
Protocol: as §4, §5, §6, §7

lysozyme: type c egg white lysozyme, enzyme of approximately 129 amino acids; commercially available from Canadian Inovatech, Inc.
control against M. nivale (M. nivale): good control
differences in disease severity among the three lysozyme concentrations (Sclerotinia homoeocarpa [1]; 5,000, 10,000, 20,000 ppm): no significant differences
disease severity compared to the untreated control (Sclerotinia homoeocarpa [1]; 5,000, 10,000 or 20,000 ppm, day 7, 10 or 21 after inoculation, p≦0.01): significant reductions
reducing the infection of S. homoeocarpa (Sclerotinia homoeocarpa [2]): not effective
Minimum lysozyme usage recommended [3]: 250-500 ppm
average fungal growth (% plate coverage) ([3]; 50 ppm): 77.7%
average fungal growth (% plate coverage) ([3]; 100 ppm): 79.5%
fungal growth (% plate coverage) compared to 0, 50 and 100 ppm (Tukey) ([3]; 250, 500 and 1000 ppm): significantly reduced
average fungal growth (% plate coverage) ([3]; 250 ppm): 38.6%
average fungal growth (% plate coverage) ([3]; 500 ppm): 25.7%
average fungal growth (% plate coverage) ([3]; 1000 ppm): 20.8%
coverage of the petri dishes ([4]; 50 ppm): 65.8%
coverage of the petri dishes ([4]; 100 ppm): 59.5%
coverage of the petri dishes ([4]; 250 ppm): 36.1%
coverage of the petri dishes ([4]; 500 ppm): 19.9%
coverage of the petri dishes ([4]; 1000 ppm): 14.4%
lowest concentration that significantly reduced the fungal growth ([4]; p<0.05): 50 ppm
fungal growth (% plate coverage) ([5]; 50 ppm): 33.7%
fungal growth (% plate coverage) ([5]; 100 ppm): 37.8%
fungal growth (% plate coverage) ([5]; 250 ppm): 23.5%
fungal growth (% plate coverage) ([5]; 500 ppm): 18.0%
lowest concentration that significantly reduced the fungal growth ([5]; p<0.05): 50 ppm
fungal growth (% plate coverage) ([6]; 50 ppm): 89.4%
fungal growth (% plate coverage) ([6]; 100 ppm): 90.0%
fungal growth (% plate coverage) ([6]; 250 ppm): 61.5%
fungal growth (% plate coverage) ([6]; 500 ppm): 36.2%
fungal growth (% plate coverage) ([6]; 1000 ppm): 33.9%
concentration required to significantly reduce the growth ([6]; p<0.05): 100 ppm
fungal growth (% plate coverage) ([7]; 50 ppm): 96.9%
fungal growth (% plate coverage) ([7]; 100 ppm): 90.6%
fungal growth (% plate coverage) ([7]; 250 ppm): 65.4%
fungal growth (% plate coverage) ([7]; 500 ppm): 43.0%
fungal growth (% plate coverage) ([7]; 1000 ppm): 34.7%
minimum concentration required to effectively inhibit this strain ([7]; p<0.05): 100 ppm
fungal growth (% plate coverage) (IM188 Botrytis cinerea; 50 ppm): 87.2%
fungal growth (% plate coverage) (IM188 Botrytis cinerea; 100 ppm): 86.2%
fungal growth (% plate coverage) (IM188 Botrytis cinerea; 250 ppm): 34.0%
fungal growth (% plate coverage) (IM188 Botrytis cinerea; 500 ppm): 16.4%
fungal growth (% plate coverage) (IM188 Botrytis cinerea; 1000 ppm): 11.3%
concentration at which the fungal growth was significantly reduced (IM188 Botrytis cinerea; p<0.05): 100 ppm
